This note sets out measurements from patent US10111880B2, “Compounds for the treatment of diabetes and disease complications arising from same” (BEN-GURION UNIVERSITY OF THE NEGEV RESEARCH AND DEVELOPMENT …, priority 2013, dated 2018).

What all share (assay type): in vivo, mouse
Assay [1] relates to STZ-induced diabetic ICR mice. Description: Blood glucose in STZ-induced diabetic ICR mice, long-term AGS treatment (5 months) with or without insulin. The arrangement: Blood Glucose At 101 day / Blood Glucose At 111 day: unit: mg/dL. As to conditions: for circulating glucose levels in diabetic animals: summary statement. As to the method:
[0182]7 week-old female ICR mice were intra-peritoneally injected with STZ (40 mg\Kg) for 5 consecutive days. Non-diabetic mice received citrate buffer (pH 4.3, cold), which served as the vehicle controls for this study. AGS-500 (6 mg\Kg) was then administered subcutaneously every 2 days, for 5 months, on the first day after STZ administration. A further control group, where DMSO was administered in accordance with this regimen, was included. Mice were divided into the following 6 groups (10 mice per group except STZ only-5 mice): • STZ only • STZ+DMSO • Citrate+DMSO 1% every day • STZ+AGS-499 (6 mg/kg) injected every day S.C • STZ+AGS-500 (6 mg/kg) injected every day S.C • STZ+AGS-500 (6 mg/kg) injected every other day S.C Mice were weighed and blood glucose levels were measured using a free style glucometer. Food consumption was also measured 24 hours prior to STZ injection. The concentration of STZ to be injected was calculated. STZ at 40 mg/kg was injected ip for 5 consecutive days. AGS treatment was administered one day following the last STZ injection. The establishment of diabetes was validated by the assessment of blood glucose levels performed every 3 days (at the beginning) and once a week after 59 days from the initiation of the experiment. Blood glucose levels over 200 mg/dl (measured 3 consecutive times) indicated a diabetic state. At 80 days from the initiation of the experiments each group was divided to 2 subgroups which received either insulin (4 units/kg) or acetic acid (0.015%) both in HEPES buffer (pH 7.45) injected every 48 hours. Mice were sacrificed after 5 months from the initiation of the experiments. Blood glucose levels were monitored every 3 days. Ten weeks after the beginning of this study, each group was divided into 2 sub-groups, one of each also received insulin (4 U\Kg) every 2 days, except for the non-diabetic sub-groups. Acetic acid (1%) served as the vehicle control.

The test system of assay [2] is insulin expressing beta islets. As to the kind of experiment: Immunofluorescence of pancreatic slices with anti-insulin antibody, insulin expressing beta islets in mice. As to conditions: for pancreatic beta cell mass: summary statement. The method, then: The light grey (originally red) stains insulin producing cells, and the darker grey (originally blue) is for DAPI staining. Density of insulin staining per area was measured using “Image J” software (D-E). The results are mean±S.E.; n=4. ***p<0.005. Magnification: ×10.

For assay [3], the system named is STZ-induced diabetic mice, kidney glomeruli. Description: Kidney histopathology (PAS staining of glomeruli) in STZ diabetic mice. As to conditions: summary statement. The method, then:
Mice were treated as described hereinabove. Following one month of treatment mice were sacrificed and histolopathological examination of the kidney was performed.
FIG. 9 plots the evaluation of a number of parameters assessed via the histopathology analysis.

Assay [4] deals with STZ-induced diabetic ICR mice. As to the kind of experiment: Glucose Tolerance Test (GTT) in STZ diabetic mice after 2 and 5 months. As to conditions: daily. The method, then: Glucose Tolerance Test: Animals were fasted for 12 hr with free access to water. Blood-glucose levels after fast were measured and then the animals received an i.p. injection of glucose (1.5 g/kg). Blood samples were taken at several intervals (for the duration of 2 hr), when glucose levels above 200 mg/dl at 2 hr confirmed a diagnosis of diabetes.
[…] Mice were subjected to 12 hours fast (with water) weighed, blood glucose level was measured and Glucose at 1.5 gr/kg in no more than 100 μl was injected IP. Blood glucose levels were measured at 10, 20, 30, 60, 90 and 120 min after glucose injection. glucose tolerance test.

For assay [5], the system named is STZ-induced diabetic ICR mice. Description: Blood glucose over time in STZ mice, short course (2 weeks) AGS treatment with or without insulin. The method, then:
(§1) Eight weeks-old female ICR mice were injected intraperitoneally (IP) with Streptozotocin (STZ), at a dose of 40 mg/Kg, for 5 consecutive days. The following day and onward, mice were administered the AGS compounds (499 or 500, as indicated), at a dose of 6 mg/Kg, either subcutaneously or orally, every other day. Blood glucose levels were monitored daily.
(§2) After the establishment of diabetes (i.e. three consecutive blood glucose measurements of >200 mg/dL), mouse groups were further sub-divided into 2 sub-groups, one of each received insulin (gradual administration of 0.5-6 units/Kg, over a period of 2 weeks) subcutaneously, every other day. Blood glucose levels were monitored daily.

For assay [6], the system named is STZ-induced diabetic ICR mice. As to the kind of experiment: Glucose tolerance test in STZ mice after short course (2 weeks) AGS treatment. As to the method: as §1, §2
Glucose tolerance tests were also performed as follows: After two weeks mice were fasted for 12 hours, then injected with D-glucose (1.5 g/Kg, IP) and blood glucose levels were examined at 0, 10, 20, 30, 60, 90 and 120 minutes, in order to evaluate pancreatic function.

With “insulin: insulin (4 units/kg) in HEPES buffer injected every 48 hours [reference compound]”, the “circulating glucose levels in control groups” value in assay [1] (insulin 4 U/Kg every 2 days, STZ-induced diabetic mice, FIG. 2C) is reported as “lowered circulating glucose levels in control groups”. Further, the “Blood Glucose At 101 day” value in assay [1] (insulin only (4 units/kg every 48 hours), STZ or STZ + vehicle groups) is 700. For the same compound, in assay [1] (insulin only, STZ or STZ + vehicle groups), the “Blood Glucose At 111 day” value is listed as 600. In assay [2] (insulin alone (STZ, DMSO)), the “No of insulin expressing beta islets/mouse” value was determined as 3.25 and the “increase in Insulin expressing Beta islets” value (“increase” below) turned out to be 125%.

`CC(c1cc(CN2CCCC2)c(O)c(CN2CCCC2)c1)(c1cc(CN2CCCC2)c(O)c(CN2CCCC2)c1)c1cc(CN2CCCC2)c(O)c(CN2CCCC2)c1` [formula XI]: the “kidney damage in diabetic subjects” value in assay [3] is on record as “reduced kidney damage”. For the same compound, the “circulating glucose levels in diabetic animals” value in assay [1] was “promoted reduction of circulating glucose levels”. Moreover, in assay [2], the “pancreatic beta cell mass” value is given as “increase of pancreatic beta cell mass”.

For the compound `CCOCc1cc(C(C)(c2cc(COCC)c(O)c(COCC)c2)c2cc(COCC)c(O)c(COCC)c2)cc(COCC)c1O` [formula XIII], the “kidney damage in diabetic subjects” value in assay [3] is listed as “reduced kidney damage”. The “circulating glucose levels in diabetic animals” value in assay [1] is “promoted reduction of circulating glucose levels”. For the same compound, the “pancreatic beta cell mass” value in assay [2] is given as “increase of pancreatic beta cell mass”.

On to `CC(c1cc(Br)c(O)c(Br)c1)(c1cc(Br)c(O)c(Br)c1)c1cc(Br)c(O)c(Br)c1` [formula XIV], for which the “kidney damage in diabetic subjects” value in assay [3] was “reduced kidney damage”. The “circulating glucose levels in diabetic animals” value in assay [1] was “promoted reduction of circulating glucose levels”. In addition, the “pancreatic beta cell mass” value in assay [2] is listed as “increase of pancreatic beta cell mass”.

For the compound `CCOCc1cc(C(C)(c2cc(COCC)c(O)c(COCC)c2)c2cc(COCC)c(O)c(COCC)c2)cc(COCC)c1O` [AGS-499, 1,1,1,1-tris (4-hydroxy-3,5-methylene ethoxy-phenyl)-ethane], in assay [4] (GTT after 2 months), the “Improvement (fold)” value is reported as 3 fold. Besides, the “Fold of Improvement” value in assay [4] (GTT after 5 months) turned out to be 3 fold. Besides, in assay [4] (GTT), the “Time needed for the Pancreas to cope glucose load after 5 months” value amounted to 30 min and the “Time needed for the Pancreas to cope with glucose load after 2 months” value is recorded as 30 min. Besides, the “circulating glucose levels over time” value in assay [5] (6 mg/Kg every other day, short course (2 weeks), FIG. 13-1) was “lowering circulating glucose levels significantly”. For the same compound, the “circulating glucose levels over time, combined with insulin therapy” value in assay [5] (short course, insulin 0.5-6 units/Kg, FIG. 13-2) is “synergistic contribution”. The “% reduction in blood glucose level” value in assay [1] (after 12 hours fast, day 142, 6 mg/kg s.c. daily) came out at 20%. Moreover, the “Blood glucose level Average” value in assay [1] (after 12 hours fast, day 142, 6 mg/kg s.c. daily, in mg/dL (unit assumed)) was 317. In assay [1] (no insulin, daily), the “% reduction In blood Glucose 101 day” value was found to be 29%, the “Blood Glucose At 101 day” value stood at 500, the “Blood Glucose At 111 day” value is recorded as 500 and the “reduction In blood Glucose 111 day” value is listed as 17%. The “Blood Glucose At 101 day” value in assay [1] (with insulin (4 units/kg every 48 hours), AGS daily) is 480. In addition, in assay [1] (with insulin, AGS daily), the “% reduction In blood Glucose 101 day” value amounted to 32%, the “Blood Glucose At 111 day” value was 400 and the “reduction In blood Glucose 111 day” value is 34%. In addition, in assay [2] (no insulin, daily), the “No of insulin expressing beta islets/mouse” value is listed as 4.3 and the “increase” value is 165%. In assay [2] (with insulin, AGS daily), the “No of insulin expressing beta islets/mouse” value stood at 3.5 and the “increase” value was determined as 135%. The “mean blood glucose levels in a glucose tolerance test” value in assay [6] (6 mg/Kg subcutaneously or orally every other day, FIG. 11) is given as “reduced mean blood glucose levels”. Besides, the “effect of adding insulin on circulating glucose levels in a glucose tolerance test” value in assay [6] (AGS subcutaneously (AGS500 also orally), FIG. 12) is recorded as “adding insulin did not appreciably lower the circulating levels”.
